Measured values published in paper PMC11758220, “Identification of a Privileged Scaffold for Inhibition of Sterol Transport Proteins through the Synthesis and Ring Distortion of Diverse, Pseudo-Natural Products” (ACS Central Science, 2025).

Assays:
ORP2 = target: T1, ORP2 (Homo sapiens, UniProt Q9H1P3); assay: Fluorescence polarisation (FP) competition with NBD-cholesterol, ORP2; format: binding; conditions: for ORP2 (FP) inhibition / inhibition at 10 µM: single dose, Dose = 10 µM; for IC50: mean of three experiments run in technical duplicates
T1 construct: ORP2(49-480); host or cells: E. coli BL21(DE3)
T1 sequence (Q9H1P3 49-480): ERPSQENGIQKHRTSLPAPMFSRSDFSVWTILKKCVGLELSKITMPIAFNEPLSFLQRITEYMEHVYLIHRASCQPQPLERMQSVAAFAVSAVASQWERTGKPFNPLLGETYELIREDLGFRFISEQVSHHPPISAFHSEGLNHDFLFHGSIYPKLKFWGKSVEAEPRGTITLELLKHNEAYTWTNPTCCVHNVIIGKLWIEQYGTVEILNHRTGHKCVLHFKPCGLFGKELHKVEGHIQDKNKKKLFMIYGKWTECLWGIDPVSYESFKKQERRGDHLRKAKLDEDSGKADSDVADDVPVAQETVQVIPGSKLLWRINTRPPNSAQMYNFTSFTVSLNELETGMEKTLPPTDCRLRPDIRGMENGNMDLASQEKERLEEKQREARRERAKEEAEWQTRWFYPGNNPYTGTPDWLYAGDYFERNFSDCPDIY
Source text: (§1) Protein expression constructs
(§2) Human ASTER domains of Aster-A(359-547), -B(364-552) and -C(318-504) were subcloned into a pGEX-6p-2rbs vector, thus introducing the cloning artifact ‘GPLGS’.3 The pGEX-6P-1-GST-OSBP(377- […]
(§3) a gift from James H. Hurley (University of California).4 The pHIS_2His6_Thrombin_STARD4(2-205;C75S) plasmid was a gift from Young Jun Im (Chonnam National University).5 STARD5A was a gift from Nicola Burgess-Brown (Addgene plasmid #42392; http://n2t.net/addgene:42392; […]
(§4) Protein expression and purification […]
(§5) vectors including an N-terminal PreScission-cleavable glutathione S-transferase (GST)-tag were expressed in Escherichia coli (E. coli) OverExpress C41 in Terrific Broth (TB) medium for 16 h at 18 °C after the induction with 0.1 mM isopropyl β-D-1-thiogalactopyranoside (IPTG). Cells were harvested at 3500 × g for 15 minutes and lysed by sonication in buffer containing 50 mM HEPES pH 7.5, 300 mM NaCl, 10 %v/v glycerol, 5 mM dithiothreitol (DTT), 0.1 %v/v Triton X-100 and protease inhibitor mix HP plus (Serva). The lysate was purified by affinity chromatography on a GSTrap FF column (Cytiva) using an ÄKTA Start (Cytiva) in buffer containing 50 mM HEPES pH 7.5, 300 mM NaCl, 10 %v/v glycerol, 5 mM DTT and 0.01 %v/v Triton X-100. The GST-tag was cleaved overnight on the column at 4 °C. The Aster sterol binding domains were further purified by size-exclusion chromatography (SEC) on a HiLoad 16/600 Superdex 75 pg (Cytiva) in buffer containing 20 mM HEPES pH 7.5, 300 mM NaCl, 10 %v/v […]
(§6) STARD5(6-213) harboring an N-terminal His6-Tag were expressed in E. coli BL21(DE3) in Luria-Bertani Broth (LB) medium for approximately 16 h at 18 °C after induction with 0.15 mM IPTG. Cells were harvested at 3500 × g for 15 minutes and lysed by sonication in buffer containing 50 mM HEPES pH 7.5, 150 mM NaCl, 5 %v/v glycerol, 5 mM DTT, 0.1 %v/v Triton X -100 and ethylenediaminetetraacetic acid (EDTA)-free protease inhibitor cocktail (Sigma-Aldrich). The cleared lysate was purified by affinity chromatography on a Ni-NTA Superflow Cartridge (Qiagen) using an ÄKTA Start (Cytiva) in buffer containing 50 mM HEPES pH 7.5, 150 mM NaCl, 5 %v/v glycerol, 5 mM DTT. START domains were eluted by using elution buffer containing 50 mM HEPES pH 7.5, 150 mM NaCl, 5 %v/v glycerol, 5 mM DTT and 500 mM imidazole. Proteins were further purified by SEC on a HiLoad 16/600 Superdex 75 pg (Cytiva) in buffer containing 20 mM HEPES pH 7.5, 150 mM NaCl, 5 %v/v glycerol and 2 mM DTT.
(§7) The ORP domain of human OSBP(377-807) in the pGEX-6p-1 vector with an N-terminal PreScission-cleavable GST-tag was expressed in E. coli OverExpress C41 in LB medium for 16 h at 18 °C after induction with 0.1 mM IPTG. Cells were harvested at 3500 × g for 15 minutes and lysed by sonication in buffer containing 20 mM HEPES pH 7.5, 300 mM NaCl, 10 %v/v glycerol, 5 mM DTT, 0.1 %v/v Triton X-100 and EDTA-free protease inhibitor cocktail (Sigma-Aldrich). The cleared lysate was purified by affinity chromatography on a GSTrap HF column (Cytiva) using an ÄKTA Start (Cytiva) in buffer containing 20 mM HEPES pH 7.5, 300 mM NaCl, 10 %v/v glycerol, 5 mM DTT. OSBP(377 -807) was eluted by using elution buffer containing 20 mM HEPES pH 7.5, 300 mM NaCl, 10 %v/v glycerol, 5 mM DTT and 10 mM reduced glutathione. Proteins were further purified by SEC on a HiLoad 16/600 Superdex 75 pg (Cytiva) using an ÄKTA Explorer (Cytiva) in buffer containing 20 mM HEPES pH 7.5, 150 mM NaCl, 10 %v/v glycerol and 2 mM DTT.
(§8) The ORP domains of human ORP1(534-950) in pET24b(+) and ORP2(49-480) in the pET24b(+) vector including an N-terminal His6-Tag were expressed in E. coli BL21(DE3) in TB medium for approximately 16 h at 18 °C after induction with 0.1 mM IPTG. Cells were collected at 3500 × g for 15 minutes and lysed by sonification in buffer containing 10 mM Tris-HCl pH 8, 300 mM NaCl, 5 % glycerol, 2 mM DTT, 0.1 % Triton X-100 and EDTA-free protease inhibitor cocktail (Sigma-Aldrich). The cleared […]

STARD3 = target: T2, STARD3 (Homo sapiens, UniProt Q14849); assay: Differential scanning fluorimetry (DSF), STARD3; format: binding; conditions: for STARD3 (DSF) ΔTm / ΔTm at 10 µM: single dose, Dose = 10 µM; for Kd: apparent Kd, mean of three experiments run in technical duplicates, read-out: STARD3 Kd,app (DSF); for STARD3 (DSF) ΔTmmax: maximal thermal shift
T2 construct: STARD3(216-444); made in house; host or cells: E. coli BL21(DE3)
T2 sequence (Q14849 216-444): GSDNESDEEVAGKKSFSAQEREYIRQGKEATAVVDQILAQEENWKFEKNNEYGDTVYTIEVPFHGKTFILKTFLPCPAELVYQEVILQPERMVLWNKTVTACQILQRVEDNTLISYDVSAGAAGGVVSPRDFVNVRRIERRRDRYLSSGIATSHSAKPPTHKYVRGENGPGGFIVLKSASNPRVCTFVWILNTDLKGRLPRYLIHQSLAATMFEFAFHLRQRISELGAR
Source text: as §1, §2, §3, §4, §5, §6, §7, §8

Row | SMILES | inhibition at 10 µM (ORP2) | ΔTm at 10 µM (STARD3) | further results
1 | C[C@]12CC[C@@H](O)C[C@H]1CCc1c2[nH]c2ccc(Br)cc12 [Compound 10b] | – | – | ORP2 (FP) inhibition (ORP2): 21%; STARD3 (DSF) ΔTm (STARD3): -0.0462 °C
2 | C[C@]12CC[C@@H](O)C[C@H]1CCc1c2[nH]c2ccc(Cl)cc12 [Compound 10c] | – | – | ORP2 (FP) inhibition (ORP2): 32%; STARD3 (DSF) ΔTm (STARD3): -0.121 °C
3 | C[C@]12CC[C@@H](O)C[C@H]1CCc1c2[nH]c2ccc(F)cc12 [Compound 10d] | – | – | ORP2 (FP) inhibition (ORP2): 42%; STARD3 (DSF) ΔTm (STARD3): -0.115 °C
4 | Cc1ccc2[nH]c3c(c2c1)CC[C@@H]1C[C@H](O)CC[C@]31C [Compound 10e] | 50.6% | 0.0774 °C | –
5 | COc1ccc2[nH]c3c(c2c1)CC[C@@H]1C[C@H](O)CC[C@]31C [Compound 10f] | 36.5% | -0.0471 °C | –
6 | CC12CCC(O)CC1CCc1c2[nH]c2ccc(C(F)(F)F)cc12 (stereo not drawn) [Compound 10g] | 57.7% | 0.227 °C | –
7 | C[C@]12CC[C@@H](O)C[C@H]1CCc1c2[nH]c2ccc(I)cc12 [Compound 10h] | – | – | ORP2 (FP) inhibition (ORP2): 63.5%; STARD3 (DSF) ΔTm (STARD3): 0.1 °C
8 | C[C@]12CC[C@@H](O)C[C@H]1CCc1c2[nH]c2c(F)cc(Cl)cc12 [Compound 10i] | 20% | 0.0372 °C | –
9 | Cc1cc(C)c2c3c([nH]c2c1)[C@@]1(C)CC[C@@H](O)C[C@H]1CC3 [Compound 10j] | 15% | -0.108 °C | –
10 | CCOC(=O)c1ccc2[nH]c3c(c2c1)CC[C@@H]1C[C@H](O)CC[C@]31C [Compound 10k] | – | – | ORP2 (FP) inhibition (ORP2): 11%; STARD3 (DSF) ΔTm (STARD3): 0.08 °C
11 | C[C@]12CC[C@@H](O)C[C@H]1CCC(=O)c1ccccc1NC2=O [Compound 11a] | – | – | ORP2 (FP) inhibition (ORP2): 6%; STARD3 (DSF) ΔTm (STARD3): -0.0327 °C
12 | C[C@]12CC[C@@H](O)C[C@H]1CCC(=O)c1cc(Br)ccc1NC2=O [Compound 11b] | 2% | -0.0537 °C | –
13 | Cc1ccc2c(c1)C(=O)CC[C@@H]1C[C@H](O)CC[C@]1(C)C(=O)N2 [Compound 11c] | -1% | -0.0522 °C | –
14 | COc1ccc2c(c1)C(=O)CC[C@@H]1C[C@H](O)CC[C@]1(C)C(=O)N2 [Compound 11d] | 11% | -0.119 °C | –
15 | C[C@]12CC[C@@H](O)C[C@H]1CCC(=O)c1cc(C(F)(F)F)ccc1NC2=O [Compound 11e] | 5% | -0.0434 °C | –
16 | C[C@]12CC[C@@H](O)C[C@H]1CCC(=O)c1cc(Cl)cc(F)c1NC2=O [Compound 11f] | – | – | ORP2 (FP) inhibition (ORP2): 7%; STARD3 (DSF) ΔTm (STARD3): -0.0767 °C

Row | SMILES | inhibition at 10 µM (ORP2) | ΔTm at 10 µM (STARD3) | further results
17 | Cc1cc(C)c2c(c1)NC(=O)[C@@]1(C)CC[C@@H](O)C[C@H]1CCC2=O [Compound 11g] | -1% | -0.0181 °C | –
18 | Cc1ccc2[nH]c3c(c(=O)c2c1)C[C@@H]1C[C@H](O)CC[C@]31C [Compound 12] | 5% | -0.0694 °C | –
19 | Cc1ccc2c(c1)[C@]1(O)CC[C@@H]3C[C@H](O)CC[C@]3(C)C1=N2 [Compound 14a] | 53% | 0.2 °C | –
20 | COc1ccc2c(c1)[C@]1(O)CC[C@@H]3C[C@H](O)CC[C@]3(C)C1=N2 [Compound 14b] | 25% | 0.0447 °C | –
21 | Cc1cc(C)c2c(c1)N=C1[C@@]2(O)CC[C@@H]2C[C@H](O)CC[C@]12C [Compound 14c] | 11% | 0.0424 °C | –
22 | C[C@]12CC[C@@H]3C[C@H]1CC[C@@]21C(=Nc2ccccc21)O3 [Compound 15a] | 25% | -0.061 °C | –
23 | CC12CCC3CC1CCC21C(=Nc2ccc(Cl)cc21)O3 (stereo not drawn) [Compound 15c] | 47% | 0.0794 °C | IC50 (ORP2): 22.2 µM
24 | C[C@]12CC[C@@H]3C[C@H]1CC[C@@]21C(=Nc2ccc(F)cc21)O3 [Compound 15d] | 25% | 0.129 °C | –
25 | Cc1ccc2c(c1)[C@@]13CC[C@@H]4C[C@@H](CC[C@@]41C)OC3=N2 [Compound 15e] | 38% | 0.167 °C | –
26 | COc1ccc2c(c1)[C@@]13CC[C@@H]4C[C@@H](CC[C@@]41C)OC3=N2 [Compound 15f] | 73% | 0.559 °C | –
27 | C[C@]12CC[C@@H]3C[C@H]1CC[C@@]21C(=Nc2ccc(C(F)(F)F)cc21)O3 [Compound 15g] | 60% | 0.655 °C | IC50 (ORP2): 8.41 µM
28 | CC12CCC3CC1CCC21C(=Nc2c(Br)cc(C(F)(F)F)cc21)O3 (stereo not drawn) [Compound 15h] | 49% | 0.0409 °C | IC50 (ORP2): 9.6 µM
29 | C[C@]12CC[C@@H]3C[C@H]1CC[C@@]21C(=Nc2c(F)cc(Cl)cc21)O3 [Compound 15i] | 41% | -0.0884 °C | –
30 | CC12CCC3CC1CCC21C(=Nc2ccc(NCc4ccccc4)cc21)O3 (stereo not drawn) [Compound 19b] | 41% | 3.3 °C | Kd (STARD3): 11.3 µM; STARD3 (DSF) ΔTmmax (STARD3): 6.3 °C
31 | CCCCCNc1ccc2c(c1)[C@@]13CC[C@@H]4C[C@@H](CC[C@@]41C)OC3=N2 [Compound 19c] | 38% | 4.3 °C | IC50 (ORP2): > 80 µM; Kd (STARD3): 9.54 µM; STARD3 (DSF) ΔTmmax (STARD3): 7.2 °C
32 | CCCCN(C)c1ccc2c(c1)[C@@]13CC[C@@H]4C[C@@H](CC[C@@]41C)OC3=N2 [Compound 19d] | 51% | 1.7 °C | IC50 (ORP2): > 80 µM; Kd (STARD3): > 100 µM; STARD3 (DSF) ΔTmmax (STARD3): 3.9 °C
